Measurements: publication PMC5391171 (Journal of molecular and cellular cardiology, 2016)
pKd: −log10 of the molar value.

Tests used:
[1] = molecular target: cChimera (cNTnC-cTnI [136–163] chimera) (Homo sapiens, UniProt P19429+P63316, C35S/C84S); experiment: NMR titration; format: binding
[2] = tested on: cardiac isoform of troponin; conditions: cited from earlier work
[3] = titration monitored by chemical shift changes

Row | pKd [1] | SMILES | Binding to cChimera [1, 3] | other results
1 |  | Cc1ccc(S(=O)(=O)Nc2ccc(Nc3ccccc3)cc2)cc1 [NSC41053] | NSC41053 Weak binding (very small chemical shift changes that could not be fit to a saturating curve, indicating a KD > 2 mM) | 
2 | 5.00 | Clc1cccc(Nc2ccccc2)c1 [3-chlorodiphenylamine] |  | 
3 |  | c1ccc(CNCc2ccccc2)cc1 [dibenzylamine] |  | Binding to cChimera ([1]; addition of a methylene carbon relative to benzylaniline): completely abolished binding
4 | 3.10 | O=C(O)c1ccccc1Nc1ccccc1 [NSC215211] |  | 
5 |  | C#Cc1cnc2nc(O)n(C(CC)CC)c2n1 [tirasemtiv] |  | activity towards the cardiac isoform of troponin [2]: no activity
6 |  | O=[N+]([O-])c1cccc(Cc2ccc(Cc3cccc([N+](=O)[O-])c3)cc2)c1 [NSC89784] | NSC89784 Weak binding (very small chemical shift changes that could not be fit to a saturating curve, indicating a KD > 2 mM) | 
